Patent US7538233B2, “Coumarins as iNOS inhibitors” (Aventis Pharmaceuticals Inc., priority 2003, dated 2009)

Tests used:
Format in all cases: biochemical
[1] = biological target: T1, Bovine NOS-3 (eNOS) (Bos taurus, UniProt P29473); assay: Bovine NOS-3 (eNOS) assay ([3H]-arginine to [3H]-citrulline conversion); settings: recombinant bovine NOS-3, 120 min, 10 μM L-[3H]arginine; ** mean of 2 determinations
T1 construct: purchased Cayman Chemical 60880; host or cells: Baculovirus / Sf9 cells
Protocol: Experimental conditions (protein concentration, incubation time) required for measuring NOS activity (37° C.) in screening assays are controlled for each batch of enzyme prepared or commercially obtained.
(§1) 0.012 Units recombinant rat nNOS is incubated in Costar polystyrene 96-well microplates 20 min at 37° C. with 2 μM L-[^3H]arginine, 1 mM NADPH, 15 μM 6R-tetrahydrobiopterin, 1 μM FAD, and 10 μg/ml calmodulin prepared in HEPES buffer (50 mM, pH 7.4) containing 0.1 mM DL-dithiothreitol, 1 mM EDTA and 1.25 mM CaCl2 (final volume: 90 μl).
(§2) 0.06 μCi/well L-[^3H]arginine (Amersham; ˜55.0 Ci/mmol, 1 mCi/ml) is used.
(§3) The incubations are terminated by using the Beckman Multimek to transfer 60 ul of the assay solution into Millipore MAHV N45 plates, packed with 80 ul/well 500 mg of AG® 50W-X8 (counterion Na^+) cation exchange resin and pre-washed with 100 ul of HEPES buffer (100 mM, pH 5.5) containing 10 mM EGTA. After filtering under vacuum into opaque scintillation plates, approximately 220 ul of Packard Microscint-40 is added to each well using a Titertek multidrop. The plates are counted on a Packard TopCount to quantify L-[^3H]citrulline by liquid scintillation counting.
(§4) The recovery of L-[^3H]citrulline can be estimated by using L-[ureido-^14C]-citrulline (NEN; 58.8 mCi/mmol) as an external standard (4.05 nCi/0.09 ml). Specific NOS I-like activity corresponds to the L-NNA-sensitive formation of L-citrulline per minute and milligram of protein (pmol/min/unit of protein).
Aliquots of commercial enzyme fraction (quantity used variable from one batch to another, but normally 0.012 Units/90 ul reaction volume) are usually incubated for 120 min in the presence of 10 μM L-[^3H]arginine (0.15 uCi/well).
(§5) For all NOS assays in vitro, the inhibitory activities of screened compounds (usually tested at 10^−9-10^−4 M) are represented by their IC50 values determined by non-linear regression analysis with Activity Base Software (Data management system from IDBS Ltd).

[2] = biological target: T2, Rat NOS-1 (nNOS) (Rattus norvegicus, UniProt P29476); assay: Rat NOS-1 (nNOS) assay ([3H]-arginine to [3H]-citrulline conversion); settings: recombinant rat nNOS, 20 min at 37° C., 2 μM L-[3H]arginine; * mean of 3 determinations
T2 construct: purchased Cayman Chemical 60870; host or cells: Baculovirus / Sf9 cells
Protocol: To avoid thawing/freezing cycles, this enzymatic preparation is divided into small fractions (25-100 μl) stored at −80° C. until use.
(§6) Experimental conditions (protein concentration, incubation time) required for measuring NOS activity (37° C.) in screening assays are controlled for each batch of enzyme prepared or commercially obtained. NOS enzymatic assays are based on the conversion of [^3H]-arginine into [^3H]-citrulline originally described by Bredt and Snyder (1990, Proc. Natl. Acad. Sci. USA 87, 682-685).
as §1, §2, §3, §4, §5

[3] = biological target: Human NOS-2 (Homo sapiens, UniProt P35228); assay: Human NOS-2 assay ([3H]-arginine to [3H]-citrulline conversion); settings: 60 min at 37° C., 2.5 μM L-[3H]arginine; * mean of 3, ** mean of 2 determinations; read-out: Human iNOS, IC50
Protocol: as §6, §3
Human iNOS is used as 1:30 diluted preparation, is usually incubated for 60 min at 37° C. in the presence of 2.5 μM L-[^3H]arginine (0.06 uCi tracer/well).
as §5

[4] = biological target: T3, Murine NOS-2 (iNOS) (Mus musculus, UniProt P29477); assay: Murine NOS-2 (iNOS) assay ([3H]-arginine to [3H]-citrulline conversion); settings: recombinant murine NOS-2, 20 min at 37° C., 10 uM L-[3H]arginine; ** mean of 2 determinations
T3 construct: purchased Cayman Chemical 60864; host or cells: E. coli
T3 sequence (P29477 whole entry): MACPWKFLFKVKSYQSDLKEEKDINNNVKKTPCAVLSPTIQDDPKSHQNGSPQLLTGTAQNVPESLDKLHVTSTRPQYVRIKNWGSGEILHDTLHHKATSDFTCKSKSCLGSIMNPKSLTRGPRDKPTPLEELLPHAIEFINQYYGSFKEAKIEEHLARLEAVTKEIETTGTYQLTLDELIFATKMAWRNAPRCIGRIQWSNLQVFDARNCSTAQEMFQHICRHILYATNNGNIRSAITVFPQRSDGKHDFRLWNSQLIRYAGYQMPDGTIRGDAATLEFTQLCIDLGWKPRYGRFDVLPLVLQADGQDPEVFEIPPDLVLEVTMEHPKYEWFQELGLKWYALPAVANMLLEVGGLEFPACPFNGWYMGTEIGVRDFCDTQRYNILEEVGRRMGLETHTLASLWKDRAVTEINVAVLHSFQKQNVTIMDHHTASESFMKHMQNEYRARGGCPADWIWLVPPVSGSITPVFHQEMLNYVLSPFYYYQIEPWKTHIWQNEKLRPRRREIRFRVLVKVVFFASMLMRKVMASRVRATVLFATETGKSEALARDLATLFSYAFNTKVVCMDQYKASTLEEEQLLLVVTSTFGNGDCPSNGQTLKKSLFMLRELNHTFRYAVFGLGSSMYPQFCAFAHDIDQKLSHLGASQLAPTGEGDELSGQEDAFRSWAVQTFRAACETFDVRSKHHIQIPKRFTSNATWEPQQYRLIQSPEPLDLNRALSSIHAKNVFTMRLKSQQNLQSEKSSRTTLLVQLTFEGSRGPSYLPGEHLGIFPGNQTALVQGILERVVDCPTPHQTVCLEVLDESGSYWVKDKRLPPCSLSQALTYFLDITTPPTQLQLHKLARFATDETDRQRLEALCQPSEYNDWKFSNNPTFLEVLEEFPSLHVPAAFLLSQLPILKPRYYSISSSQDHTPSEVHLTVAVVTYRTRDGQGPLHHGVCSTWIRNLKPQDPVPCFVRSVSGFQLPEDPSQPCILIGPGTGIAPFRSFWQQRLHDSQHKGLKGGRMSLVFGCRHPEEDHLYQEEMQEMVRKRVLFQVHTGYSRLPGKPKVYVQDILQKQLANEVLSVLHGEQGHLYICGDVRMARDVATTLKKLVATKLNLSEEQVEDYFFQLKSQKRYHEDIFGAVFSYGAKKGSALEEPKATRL
Protocol: A recombinant murine NOS-2 (inducible) preparation is purchased from Cayman Chemical (Catalog N^o 60864). This preparation corresponds to murine NOS-2 expressed in E. Coli, and represents a 100,000×supernatant. To avoid thawing/freezing cycles, this enzymatic preparation is divided into small fractions (25-100 μl) stored at −80° C. until use.
as §6, §2, §3
The recovery of L-[^3H]citrulline can be estimated by using L-[ureido-^14C]-citrulline (NEN; 58.8 mCi/mmol) as an external standard (4.05 nCi/0.09 ml).
as §5

T1 sequence (P29473 2-1205): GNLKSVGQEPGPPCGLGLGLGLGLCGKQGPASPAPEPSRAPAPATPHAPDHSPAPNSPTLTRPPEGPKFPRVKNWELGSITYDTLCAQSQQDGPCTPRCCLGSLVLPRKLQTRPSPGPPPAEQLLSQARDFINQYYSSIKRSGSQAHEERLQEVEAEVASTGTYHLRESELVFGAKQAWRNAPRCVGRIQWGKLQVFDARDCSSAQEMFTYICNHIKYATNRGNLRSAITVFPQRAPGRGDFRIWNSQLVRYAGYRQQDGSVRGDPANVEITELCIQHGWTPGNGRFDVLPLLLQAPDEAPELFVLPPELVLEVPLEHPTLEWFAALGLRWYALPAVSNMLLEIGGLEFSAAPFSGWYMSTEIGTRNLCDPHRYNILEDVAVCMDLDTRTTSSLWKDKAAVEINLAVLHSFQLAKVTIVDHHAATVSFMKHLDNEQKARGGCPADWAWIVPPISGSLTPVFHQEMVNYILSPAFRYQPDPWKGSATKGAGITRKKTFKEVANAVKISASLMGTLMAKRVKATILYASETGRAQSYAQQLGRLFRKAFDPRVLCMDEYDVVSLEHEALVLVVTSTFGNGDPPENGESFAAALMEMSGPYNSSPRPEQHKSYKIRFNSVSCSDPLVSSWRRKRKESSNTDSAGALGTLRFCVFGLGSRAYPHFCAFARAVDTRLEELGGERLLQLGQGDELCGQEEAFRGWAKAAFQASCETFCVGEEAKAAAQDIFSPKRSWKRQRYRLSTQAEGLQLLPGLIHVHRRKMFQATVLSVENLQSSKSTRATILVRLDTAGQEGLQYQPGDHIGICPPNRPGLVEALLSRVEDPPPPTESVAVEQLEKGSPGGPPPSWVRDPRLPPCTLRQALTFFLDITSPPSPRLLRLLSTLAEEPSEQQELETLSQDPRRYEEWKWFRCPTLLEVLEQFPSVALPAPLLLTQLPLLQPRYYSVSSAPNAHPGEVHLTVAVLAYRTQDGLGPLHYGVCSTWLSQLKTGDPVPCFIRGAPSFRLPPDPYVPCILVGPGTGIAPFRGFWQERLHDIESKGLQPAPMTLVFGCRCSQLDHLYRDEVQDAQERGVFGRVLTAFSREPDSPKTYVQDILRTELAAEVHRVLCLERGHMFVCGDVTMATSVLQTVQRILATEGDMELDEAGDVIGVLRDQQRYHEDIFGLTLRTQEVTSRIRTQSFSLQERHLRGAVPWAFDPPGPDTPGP
T2 sequence (P29476 whole entry): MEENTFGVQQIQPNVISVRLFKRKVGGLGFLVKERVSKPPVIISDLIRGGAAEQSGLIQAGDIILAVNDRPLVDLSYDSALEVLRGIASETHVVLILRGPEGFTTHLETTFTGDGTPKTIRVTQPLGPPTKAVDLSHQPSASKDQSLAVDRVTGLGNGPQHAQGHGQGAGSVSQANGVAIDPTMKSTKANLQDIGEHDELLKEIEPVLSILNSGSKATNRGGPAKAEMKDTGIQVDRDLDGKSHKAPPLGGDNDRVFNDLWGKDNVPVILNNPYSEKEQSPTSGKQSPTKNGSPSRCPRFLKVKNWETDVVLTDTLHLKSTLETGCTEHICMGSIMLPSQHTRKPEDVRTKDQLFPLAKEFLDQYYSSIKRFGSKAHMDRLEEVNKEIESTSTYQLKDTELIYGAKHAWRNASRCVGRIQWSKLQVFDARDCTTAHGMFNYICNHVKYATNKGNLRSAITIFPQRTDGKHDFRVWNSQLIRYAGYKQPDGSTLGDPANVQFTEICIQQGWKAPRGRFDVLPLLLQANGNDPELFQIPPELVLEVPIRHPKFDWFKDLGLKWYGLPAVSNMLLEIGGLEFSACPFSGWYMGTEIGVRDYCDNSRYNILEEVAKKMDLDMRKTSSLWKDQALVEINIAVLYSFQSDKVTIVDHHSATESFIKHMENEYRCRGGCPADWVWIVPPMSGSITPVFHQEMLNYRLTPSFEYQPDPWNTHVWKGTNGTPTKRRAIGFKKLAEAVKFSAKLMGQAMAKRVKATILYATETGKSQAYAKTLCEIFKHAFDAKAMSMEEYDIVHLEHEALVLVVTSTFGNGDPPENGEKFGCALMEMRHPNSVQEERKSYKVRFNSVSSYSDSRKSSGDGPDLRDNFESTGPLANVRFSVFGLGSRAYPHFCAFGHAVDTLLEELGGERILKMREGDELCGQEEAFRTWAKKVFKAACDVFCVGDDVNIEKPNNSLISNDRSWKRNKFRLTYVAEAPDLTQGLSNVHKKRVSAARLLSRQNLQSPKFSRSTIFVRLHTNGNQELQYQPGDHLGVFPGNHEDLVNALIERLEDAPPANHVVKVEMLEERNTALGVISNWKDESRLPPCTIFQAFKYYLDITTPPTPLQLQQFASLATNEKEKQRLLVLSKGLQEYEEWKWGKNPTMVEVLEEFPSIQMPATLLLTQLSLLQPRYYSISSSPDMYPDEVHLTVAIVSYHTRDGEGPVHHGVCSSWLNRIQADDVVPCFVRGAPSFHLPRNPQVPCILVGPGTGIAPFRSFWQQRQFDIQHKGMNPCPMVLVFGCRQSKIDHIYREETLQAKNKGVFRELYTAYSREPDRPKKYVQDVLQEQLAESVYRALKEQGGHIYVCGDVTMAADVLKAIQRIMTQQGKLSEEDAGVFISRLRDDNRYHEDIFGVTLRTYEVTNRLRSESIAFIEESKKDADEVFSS
Sequence of Human NOS-2 (P35228 whole entry): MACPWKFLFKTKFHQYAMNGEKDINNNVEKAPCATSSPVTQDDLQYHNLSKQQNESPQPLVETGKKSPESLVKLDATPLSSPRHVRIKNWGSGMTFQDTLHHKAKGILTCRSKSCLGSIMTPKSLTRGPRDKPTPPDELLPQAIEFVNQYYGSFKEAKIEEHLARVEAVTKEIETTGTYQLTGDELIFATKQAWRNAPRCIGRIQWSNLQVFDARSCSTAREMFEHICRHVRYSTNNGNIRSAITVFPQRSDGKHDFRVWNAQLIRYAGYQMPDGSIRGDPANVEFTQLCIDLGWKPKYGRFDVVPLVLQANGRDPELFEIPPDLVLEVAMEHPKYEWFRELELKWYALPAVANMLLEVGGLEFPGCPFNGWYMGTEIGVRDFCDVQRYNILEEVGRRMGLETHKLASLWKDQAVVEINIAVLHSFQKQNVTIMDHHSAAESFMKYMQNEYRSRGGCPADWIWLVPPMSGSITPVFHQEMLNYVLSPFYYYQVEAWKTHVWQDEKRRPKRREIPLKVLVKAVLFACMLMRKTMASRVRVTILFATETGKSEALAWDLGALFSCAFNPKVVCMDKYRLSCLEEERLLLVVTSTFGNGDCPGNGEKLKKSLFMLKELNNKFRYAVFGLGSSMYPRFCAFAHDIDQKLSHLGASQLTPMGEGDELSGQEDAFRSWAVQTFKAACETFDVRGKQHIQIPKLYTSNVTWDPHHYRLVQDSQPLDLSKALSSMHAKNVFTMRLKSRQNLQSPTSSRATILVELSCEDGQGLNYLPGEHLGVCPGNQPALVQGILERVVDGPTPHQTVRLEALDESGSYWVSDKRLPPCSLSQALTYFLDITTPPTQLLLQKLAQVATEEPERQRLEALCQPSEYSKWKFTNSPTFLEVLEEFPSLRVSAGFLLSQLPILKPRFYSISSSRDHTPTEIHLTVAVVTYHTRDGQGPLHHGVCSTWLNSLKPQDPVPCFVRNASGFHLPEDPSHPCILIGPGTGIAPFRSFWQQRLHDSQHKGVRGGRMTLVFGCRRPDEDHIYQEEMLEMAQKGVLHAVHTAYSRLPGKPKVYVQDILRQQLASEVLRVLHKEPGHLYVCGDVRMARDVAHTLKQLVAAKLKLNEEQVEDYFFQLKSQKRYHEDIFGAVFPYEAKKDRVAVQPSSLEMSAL

| SMILES | IC50 [1] | IC50 [2] | IC50 [3] | IC50 [4] |
| --- | --- | --- | --- | --- |
| NCCCOc1cc(=O)oc2ccc(Cl)cc12 [Example 1, 6-Chloro-4-(3-aminopropoxy)-1-benzopyran-2-one] | > 10000 nM | 560 nM | 94 nM | 60 nM |
| CN(C)CCCOc1cc(=O)oc2ccccc12 [Example 2, 4-(3-Dimethylamino-propoxy)-1-benzopyran-2-one] | > 10000 nM | > 10000 nM | 4000 nM | > 10000 nM |
| CNCCCOc1cc(=O)oc2ccc(Cl)cc12 [Example 3, 6-Chloro-4-(3-methylamino-propoxy)-1-benzopyran-2-one] | > 10000 nM | 530 nM | 110 nM | 250 nM |
| NCCCOc1cc(=O)oc2ccc(Br)cc12 [Example 11, 4-(3-Amino-propoxy)-6-bromo-1-benzopyran-2-one] | > 10000 nM | 360 nM | 100 nM | 140 nM |
| NCCCOc1cc(=O)oc2ccc(F)cc12 [Example 12, 4-(3-Amino-propoxy)-6-fluoro-1-benzopyran-2-one] | > 10000 nM | 1600 nM | 1100 nM | 440 nM |
| Cc1ccc2oc(=O)cc(OCCCN)c2c1 [Example 14, 4-(3-Amino-propoxy)-6-methyl-1-benzopyran-2-one] | > 10000 nM | 650 nM | 300 nM | 300 nM |
| NCCCOc1cc(=O)oc2ccccc12 [Example 19, 4-(3-Amino-propoxy)-1-benzopyran-2-one] | > 10000 nM | 9100 nM | 7600 nM | 7400 nM |
| CN(C)CCCOc1cc(=O)oc2ccc(Cl)cc12 [Example 22, 6-Chloro-4-(3-dimethylamino-propoxy)-1-benzopyran-2-one] | > 10000 nM | 8000 nM | 4100 nM | 1200 nM |
| Cc1ccc2oc(=O)cc(OCCCN(C)C)c2c1 [Example 23, 4-(3-Dimethylamino-propoxy)-6-methyl-1-benzopyran-2-one] | > 10000 nM | > 10000 nM | 4700 nM | 3000 nM |
| N=C(N)NCCCOc1cc(=O)oc2ccc(Cl)cc12 [Example 28, N-[3-(6-Chloro-2-oxo-2H-1-benzopyran-4-yloxy)-propyl]guanidine] | > 10000 nM | 500 nM | 510 nM | 390 nM |
| NCCCCOc1cc(=O)oc2ccc(Cl)cc12 [Example 31, 4-(4-Amino-butoxy)-6-chloro-1-benzopyran-2-one] | > 10000 nM | > 10000 nM | 2000 nM | 1000 nM |
| NCCCCCOc1cc(=O)oc2ccc(Cl)cc12 [Example 32, 4-(5-Amino-pentyloxy)-6-chloro-1-benzopyran-2-one] |  |  | 1300 nM |  |
| O=c1cc(OCC2CCCNC2)c2cc(Cl)ccc2o1 (stereo not drawn) [Example 33, 6-Chloro-4-(piperidin-3-ylmethoxy)-1-benzopyran-2-one] |  |  |  | 1500 nM |
| O=c1cc(OCCC2CCCCN2)c2cc(Cl)ccc2o1 (stereo not drawn) [Example 34, 6-Chloro-4-(2-piperidin-2-yl-ethoxy)-1-benzopyran-2-one] | > 10000 nM | 1000 nM | 2000 nM | 4200 nM |
| NCCCCc1cc(=O)oc2ccc(Cl)cc12 [Example 57, 4-(4-Aminobutyl)6-chloro-1-benzopyran-2-one] |  |  | 3600 nM |  |
